# What was measured:
# VEGF-A = VEGF-A angiogenic immunohistochemical marker in scar biopsies; format: in vivo, human
# Description: A double-blind randomized placebo-controlled trial was conducted using a temporal punch-biopsy model. The punch biopsy and topical application methodology used in the study is illustrated in FIG. 1, namely showing pre-injury pre-emptive priming (7-days), pre-injury pre-emptive priming (3-days), day of injury (immediate application on day 0), post-injury (delayed 2 weeks post injury) including biopsy time points and time of topical applications. Each group applied both placebo and topical formulations twice daily for the duration of the study until week 8, with only the starting time point differing between groups Participants were split into 4 groups (n=10 in each group) in order to compare different modes (timings) of commencement of the topical application: • Group-1: Pre-emptive Priming (7-days): pre-injury • Group-2: Pre-emptive Priming (3-days): pre-injury • Group-3: Immediate (0-day): day-of-injury • Group-4: Delayed (14-days): post-injury Clinical quantitative devices were used to objectively monitor cutaneous healing at weekly intervals and punch biopsies were performed on day 0 (uninjured skin) and at weeks 4 and 8 for protein and gene expression analyses. In the trial, topical EGCG and a placebo topical were applied twice daily for the duration of the trial until week 8 with only the starting time points differing between groups. Clinical and experimental analysis involved use of non-invasive devices as well as protein and gene studies. Excisional skin biopsies in upper arms were evaluated weekly with multiple quantitative devices over an 8-week period. […] In order to further support these findings and the clinical findings, two well-known and established angiogenic immunohistochemical markers; CD31 and VEGF-A were used.
# human skin models = details: ex vivo human skin models; cited from earlier work
# Fc epsilon RI (FcεRI) = assay: Fc epsilon RI immunohistochemical marker in scar biopsies; format: in vivo, human; details: week 4, all groups, p<0.01
# Description: (§1) A double-blind randomized placebo-controlled trial was conducted using a temporal punch-biopsy model. The punch biopsy and topical application methodology used in the study is illustrated in FIG. 1, namely showing pre-injury pre-emptive priming (7-days), pre-injury pre-emptive priming (3-days), day of injury (immediate application on day 0), post-injury (delayed 2 weeks post injury) including biopsy time points and time of topical applications. Each group applied both placebo and topical formulations twice daily for the duration of the study until week 8, with only the starting time point differing between groups Participants were split into 4 groups (n=10 in each group) in order to compare different modes (timings) of commencement of the topical application: • Group-1: Pre-emptive Priming (7-days): pre-injury • Group-2: Pre-emptive Priming (3-days): pre-injury • Group-3: Immediate (0-day): day-of-injury • Group-4: Delayed (14-days): post-injury Clinical quantitative devices were used to objectively monitor cutaneous healing at weekly intervals and punch biopsies were performed on day 0 (uninjured skin) and at weeks 4 and 8 for protein and gene expression analyses. […] Excisional skin biopsies in upper arms were evaluated weekly with multiple quantitative devices over an 8-week period. […]
# [1] = test system: human skin scarring model; assay: Scar thickness by H+E stain; format: in vivo; details: weeks 4 and 8, Groups 1, 2 and 4
# Description: as §1
# [2] = test system: human skin scarring model; assay: Blood flow by full-field laser perfusion imaging (FLPI); format: in vivo
# Description: A double-blind randomized placebo-controlled trial was conducted using a temporal punch-biopsy model. The punch biopsy and topical application methodology used in the study is illustrated in FIG. 1, namely showing pre-injury pre-emptive priming (7-days), pre-injury pre-emptive priming (3-days), day of injury (immediate application on day 0), post-injury (delayed 2 weeks post injury) including biopsy time points and time of topical applications. Each group applied both placebo and topical formulations twice daily for the duration of the study until week 8, with only the starting time point differing between groups Participants were split into 4 groups (n=10 in each group) in order to compare different modes (timings) of commencement of the topical application: • Group-1: Pre-emptive Priming (7-days): pre-injury • Group-2: Pre-emptive Priming (3-days): pre-injury • Group-3: Immediate (0-day): day-of-injury • Group-4: Delayed (14-days): post-injury Clinical quantitative devices were used to objectively monitor cutaneous healing at weekly intervals and punch biopsies were performed on day 0 (uninjured skin) and at weeks 4 and 8 for protein and gene expression analyses. In the trial, topical EGCG and a placebo topical were applied twice daily for the duration of the trial until week 8 with only the starting time points differing between groups. […]
structure (smiles),measurement,setting,value
"O=C(OC1Cc2c(O)cc(O)cc2OC1c1cc(O)c(O)c(O)c1)c1cc(O)c(O)c(O)c1 (single isomer, unassigned; (-)) [EGCG, (-)-epigallocatechin-3-gallate]",VEGF-A in EGCG-treated samples compared to placebo,"VEGF-A; week 4, all groups, p<0.01",significantly down-regulated
same,VEGF-A: greater reduction in group-2 compared to group-4,"VEGF-A; week 4, 3-day priming vs delayed, p=0.01",56%
same,VEGF-A: greater reduction in group-1 compared to group-4,"VEGF-A; week 4, 7-day priming vs delayed, p=0.005",51%
same,VEGF-A in EGCG-treated samples,"VEGF-A; week 8, groups 1-3, p<0.01",significant reduction
same,Effect on scar growth,human skin models,inhibited growth and induced scar shrinkage
same,Mast cell (MC) numbers,human skin models,significantly reduced mast cell (MC) numbers
same,FcεRI in EGCG-treated samples compared to placebo,Fc epsilon RI (FcεRI),significant reduction
same,Scar thickness by H+E stain with EGCG,[1],reduced scar thickness
same,"FLPI blood flow, EGCG arms compared to placebo arms","[2]; group-1 weeks 1 and 8, group-2 weeks 3, 7, 8, group-3 weeks 1-3, 6-8, group-4 weeks 3-8, p<0.01",significant reduction
same,"FLPI blood flow, between group comparison, groups-1 and 3 vs group-4","[2]; week 1, p<0.001, p=0.002",reduced blood flow more than group-4

# Reference: patent US12691092B2, “Method for reducing cutaneous skin scarring by pre-emptive priming and compounds and compositions for its implementation” (SOS SCIENCE OF SKIN LTD, priority 2020, dated 2026)
